Assay results reported in patent EP4603105A1, “PHARMACEUTICAL COMPOSITION CONTAINING CYCLIC COMPOUND HAVING SELECTIVE KRAS INHIBITORY EFFECT AGAINST HRAS AND NRAS” (CHUGAI SEIYAKU KABUSHIKI KAISHA, priority 2022, dated 2024).
Where a SMILES comes first, the peptide text is derived from it. Bridges are numbered along the chain shown (N, C = ends). [ ]: non-standard residue; d: D form. The star is where a group is joined. hPhe(3-Cl-4-CF3) = N[C@@H](CCc1ccc(C(F)(F)F)c(Cl)c1)C(=O)O; NPrPhe(4-CF3) = CCCN[C@@H](Cc1ccc(C(F)(F)F)cc1)C(=O)O; hPhe(3,4-Cl2) = N[C@@H](CCc1ccc(Cl)c(Cl)c1)C(=O)O; Pip(4,4-F2) = O=C(O)[C@@H]1CC(F)(F)CCN1; NMeGly(cPent) = CN[C@H](C(=O)O)C1CCCC1; Hyp = O=C(O)[C@@H]1C[C@@H](O)CN1; NMeD = CN[C@@H](CC(=O)O)C(=O)O; NMeL = CN[C@@H](CC(C)C)C(=O)O; Morpholide = C1CN(*)CCO1; Ac5c = NC1(C(=O)O)CCCC1; Ac4c = NC1(C(=O)O)CCC1; NEtG = CCNCC(=O)O; Sar = CNCC(=O)O

Legend:
HRAS wild-type protein = HRAS wild-type protein (Homo sapiens, UniProt P01112); experiment: Binding to HRAS by surface plasmon resonance (SPR), KD and KD ratio to KRAS
Method in brief: (§1)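 Recombinant RAS proteins bearing a biotinylated Avi tag and loaded with GDP served as the captured ligand, recaptured fresh every cycle. Binding responses were referenced to an uncoated surface and a buffer-only blank cycle. Dissociation constants were obtained by 1:1 model fitting at 30°C.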

[1] = target: GDP-bound NRAS wild-type protein (Homo sapiens, UniProt P01111); experiment: Binding to NRAS by surface plasmon resonance (SPR), KD and KD ratio to KRAS
Method in brief: as §1

[2] = tested on: human lung cancer strain NCI-H441; type: cell-based
Method in brief: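 Signal came from […] measured per well once the reagent was added. Beforehand, cells were cultured at 37°C and 5% carbon dioxide on a compound series serially diluted in dimethyl sulfoxide.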

[3] = ratio of KD for HRAS wild-type protein to KD for KRAS
[4] = ratio of KD for GDP-bound NRAS wild-type protein to KD for KRAS
[5] = ratio of KD value for HRAS wild-type protein to KD value for KRAS (SPR)
[6] = ratio of KD value for GDP-bound NRAS wild-type protein to KD value for KRAS (SPR)
[7] = ratio of the KD value with respect to HRAS wild-type protein to the KD value with respect to KRAS
[8] = ratio of the KD value with respect to GDP-bound NRAS wild-type protein to the KD value with respect to KRAS

Chain of GDP-bound NRAS wild-type protein (P01111 whole entry): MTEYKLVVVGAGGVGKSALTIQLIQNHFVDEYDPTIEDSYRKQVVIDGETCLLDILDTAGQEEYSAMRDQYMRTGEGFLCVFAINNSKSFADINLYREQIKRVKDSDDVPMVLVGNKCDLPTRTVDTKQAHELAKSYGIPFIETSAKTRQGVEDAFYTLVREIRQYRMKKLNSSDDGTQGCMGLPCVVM
Chain of HRAS wild-type protein (P01112 whole entry): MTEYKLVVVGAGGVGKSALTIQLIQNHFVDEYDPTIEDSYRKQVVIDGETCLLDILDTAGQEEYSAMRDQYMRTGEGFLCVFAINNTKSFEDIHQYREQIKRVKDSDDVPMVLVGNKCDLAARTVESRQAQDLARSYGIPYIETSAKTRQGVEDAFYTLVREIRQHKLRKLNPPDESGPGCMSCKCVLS

SMILES	IC50 [2]	HRAS /KRAS (HRAS wild-type protein; [3])	NRAS /KRAS [1, 4]	HRAS /KRAS (HRAS wild-type protein; [5])	NRAS /KRAS [1, 6]	HRAS /KRAS (HRAS wild-type protein; [7])	NRAS /KRAS [1, 8]
CCC[C@H]1C(=O)N[C@@H]([C@@H](C)CC)C(=O)N(C2CC2)CC(=O)N(C)[C@H]2C/C=C\CCN(C2=O)[C@@H](Cc2ccc(C(F)(F)F)cc2)C(=O)N(C)CC(=O)N[C@@H](CCc2ccc(C(F)(F)F)c(OC)c2)C(=O)N2C[C@H](OCC)C[C@H]2C(=O)NC2(CC(C)(C)C2)C(=O)N(C)[C@@H](CC2CC2)C(=O)N(C)[C@H](C(=O)N(C)C)CC(=O)N1C [PP2815]	188 nM	A (a compound having 10 or more and less than 20 is denoted as A)	A (a compound having 10 or more and less than 20 is denoted as A)				
CCC[C@H]1C(=O)N[C@@H]([C@@H](C)CC)C(=O)N(C)CC(=O)N(C)[C@H]2C/C=C\CCN(C2=O)[C@@H](Cc2ccc(C(F)(F)F)cc2)C(=O)N(C)CC(=O)N[C@@H](CCc2cc(F)c(C(F)(F)F)c(F)c2)C(=O)N2C[C@H](F)C[C@H]2C(=O)NC2(CC(C)(C)C2)C(=O)N(C)[C@@H](C2CCCC2)C(=O)N(C)[C@H](C(=O)N(C)C)CC(=O)N1C [PP1689]	1.4 nM			B (a compound having 3 or more and less than 10 is denoted as B)	A (a compound having 10 or more and less than 20 is denoted as A)		
CCC[C@H]1C(=O)N[C@@H]([C@@H](C)CC)C(=O)N(C)CC(=O)N(C)[C@H]2C/C=C\CCN(C2=O)[C@@H](Cc2ccc(C(F)(F)F)cc2)C(=O)N(C)CC(=O)N[C@@H](CCc2ccc(C(F)(F)F)c(Cl)c2)C(=O)N2C[C@H](OCC)C[C@H]2C(=O)NC2(CC(C)(C)C2)C(=O)N(C)[C@@H](CC(C)(C)C)C(=O)N(C)[C@H](C(=O)N(C)C)CC(=O)N1C [PP2969]	2.7 nM	A (a compound having 10 or more and less than 20 is denoted as A)	AA (a compound having 20 or more is denoted as AA)				
CCCN1C(=O)CN(C)C(=O)CN(C)C(=O)[C@H]([C@@H](C)CC)NC(=O)[C@H](CC(C)C)N(C)C(=O)C[C@@H](C(=O)N2CCOCC2)N(C)C(=O)[C@H](C2CCCC2)N(C)C(=O)C2(CCCC2)NC(=O)[C@@H]2CCCN2C(=O)[C@H](CCc2ccc(Cl)c(Cl)c2)NC(=O)CN(C)C(=O)[C@@H]1Cc1ccc(C(F)(F)F)cc1 [PP0232] ([NMeL]I[Sar][Sar][NPrPhe(4-CF3)][Sar][hPhe(3,4-Cl2)]P[Ac5c][NMeGly(cPent)][NMeD]-Morpholide; lactam N-11)	4.7 nM	B (a compound having 3 or more and less than 10 is denoted as B)	B (a compound having 3 or more and less than 10 is denoted as B)				
CCO[C@@H]1C[C@H]2C(=O)NC3(CCC3)C(=O)N(C)[C@@H](C3CCCC3)C(=O)N(C)[C@H](C(=O)N3CCOCC3)CC(=O)N(C)[C@@H](CC3CC3)C(=O)N[C@@H]([C@@H](C)CC)C(=O)N(C)CC(=O)N(C)[C@H]3C/C=C\CCN(C3=O)[C@@H](Cc3ccc(F)cc3)C(=O)N(C)CC(=O)N[C@@H](CCc3cc(F)c(C(F)(F)F)c(F)c3)C(=O)N2C1 [PP1496]	36.7 nM			B (a compound having 3 or more and less than 10 is denoted as B)	A (a compound having 10 or more and less than 20 is denoted as A)		
CCCN1C(=O)CN(C)C(=O)CN(CC)C(=O)[C@H]([C@@H](C)CC)NC(=O)[C@H](CC(C)C)N(C)C(=O)C[C@@H](C(=O)N(C)C)NC(=O)[C@H](C2CCCC2)N(C)C(=O)C2(CCCC2)NC(=O)[C@@H]2C[C@@H](OCC)CN2C(=O)[C@H](CCc2ccc(C(F)(F)F)c(Cl)c2)NC(=O)CN(C)C(=O)[C@@H]1Cc1ccc(C(F)(F)F)cc1 [PP0371] ([NMeL]I[NEtG][Sar][NPrPhe(4-CF3)][Sar][hPhe(3-Cl-4-CF3)][Hyp](Et)[Ac5c][NMeGly(cPent)]D-NMe2; lactam N-11)	30.9 nM	C (A compound having a KD ratio of 0.1 or more and less than 3 is denoted as C)	B (a compound having 3 or more and less than 10 is denoted as B)				
CCO[C@@H]1C[C@H]2C(=O)NC3(CCC3)C(=O)N(C)[C@@H](C(CC)CC)C(=O)N(C)[C@H](C(=O)N3CCCC3)CC(=O)N(C)[C@H]3CCCC/C=C/c4ccc(cc4)C[C@@H](C(=O)N(C)CC(=O)N[C@@H](CCc4ccc(Cl)c(Cl)c4)C(=O)N2C1)N1CC/C=C\C[C@@H](C1=O)N(C)C(=O)CN(C)C(=O)[C@H]([C@@H](C)CC)NC3=O [PP3047]	6.1 nM	A (a compound having 10 or more and less than 20 is denoted as A)	AA (a compound having 20 or more is denoted as AA)				
CCO[C@@H]1C[C@H]2C(=O)NC3(CCC(F)(F)CC3)C(=O)N(C)[C@@H](C3CCCC3)C(=O)N(C)[C@H](C(=O)N3CCOCC3)CC(=O)N(C)[C@@H](CC(C)C)C(=O)N[C@@H]([C@@H](C)CC)C(=O)N(C)CC(=O)N(C)[C@H]3CCCCCN(C3=O)[C@@H](Cc3ccc(C(F)(F)F)cc3)C(=O)N(C)CC(=O)N[C@@H](CCc3cc(F)c(C(F)(F)F)c(F)c3)C(=O)N2C1 [PP0728]	252 nM					B (a compound having 3 or more and less than 10 is denoted as B)	B (a compound having 3 or more and less than 10 is denoted as B)
CCO[C@@H]1C[C@H]2C(=O)NC3(CCC3)C(=O)N(C)[C@@H](C3CCCC3)C(=O)N(C)[C@H](C(=O)N(C)C)CC(=O)N(C)[C@@H](C)C(=O)N[C@@H]([C@@H](C)CC)C(=O)N(C)CC(=O)N(C)[C@H]3CCCCCN(C3=O)[C@@H](Cc3ccc(C(F)(F)F)cc3)C(=O)N(C)CC(=O)N[C@@H](CCc3cc(F)c(C(F)(F)F)c(F)c3)C(=O)N2C1 [PP0476]	4.9 nM					B (a compound having 3 or more and less than 10 is denoted as B)	B (a compound having 3 or more and less than 10 is denoted as B)

Second part, led by results:

IC50 [2]	SMILES	HRAS /KRAS (HRAS wild-type protein; [3])	NRAS /KRAS [1, 4]	HRAS /KRAS (HRAS wild-type protein; [5])	NRAS /KRAS [1, 6]	HRAS /KRAS (HRAS wild-type protein; [7])	NRAS /KRAS [1, 8]
6.7 nM	CCC[C@H]1C(=O)N[C@@H]([C@@H](C)CC)C(=O)N2CCC[C@H]2C(=O)N(C)[C@H]2C/C=C\CCN(C2=O)[C@@H](Cc2ccc(C)cc2)C(=O)N(C)CC(=O)N[C@@H](CCc2ccc(C(F)(F)F)c(OC)c2)C(=O)N2C[C@H](OCC)C[C@H]2C(=O)N(C)C2(CCC2)C(=O)N(C)[C@@H](C2CCCC2)C(=O)N(C)[C@H](C(=O)N2CCCC2)CC(=O)N1C [PP3102]	A (a compound having 10 or more and less than 20 is denoted as A)	A (a compound having 10 or more and less than 20 is denoted as A)				
8.3 nM	CCCC[C@H]1C(=O)N[C@@H]([C@@H](C)CC)C(=O)N(C)CC(=O)N(C)[C@H]2C/C=C\CCN(C2=O)[C@@H](Cc2ccc(C(F)(F)F)cc2)C(=O)N(C)CC(=O)N[C@@H](CCc2ccc(C(F)(F)F)c(OC)c2)C(=O)N2C[C@H](OCC)C[C@H]2C(=O)NC2(CCC2)C(=O)N(C)[C@@H](C2CCCC2)C(=O)N(C)[C@H](C(=O)N(C)CC)CC(=O)N1C [PP2840]	A (a compound having 10 or more and less than 20 is denoted as A)	A (a compound having 10 or more and less than 20 is denoted as A)				
21.7 nM	CCO[C@@H]1C[C@H]2C(=O)NC3(CCC3)C(=O)N(C)[C@@H](C3CCCC3)C(=O)N(C)[C@H](C(=O)N3CCOCC3)CC(=O)N(C)[C@@H](CC(F)F)C(=O)N[C@@H]([C@@H](C)CC)C(=O)N(C)CC(=O)N(C)[C@H]3CCCCCN(C3=O)[C@@H](Cc3ccc(C(F)(F)F)cc3)C(=O)N(C)CC(=O)N[C@@H](CCc3cc(F)c(C(F)(F)F)c(F)c3)C(=O)N2C1 [PP0854]	B (a compound having 3 or more and less than 10 is denoted as B)	B (a compound having 3 or more and less than 10 is denoted as B)				
16.4 nM	CCCN1C(=O)CN(C)C(=O)CN(C)C(=O)[C@H]([C@@H](C)CC)NC(=O)[C@H](CC(C)C)N(C)C(=O)C[C@@H](C(=O)N2CCOCC2)N(C)C(=O)[C@H](C2CCCC2)N(C)C(=O)C2(CCCC2)NC(=O)[C@@H]2CC(F)(F)CCN2C(=O)[C@H](CCc2ccc(C(F)(F)F)c(Cl)c2)NC(=O)CN(C)C(=O)[C@@H]1Cc1ccc(C(F)(F)F)cc1 [PP0264] ([NMeL]I[Sar][Sar][NPrPhe(4-CF3)][Sar][hPhe(3-Cl-4-CF3)][Pip(4,4-F2)][Ac5c][NMeGly(cPent)][NMeD]-Morpholide; lactam N-11)	C (A compound having a KD ratio of 0.1 or more and less than 3 is denoted as C)	B (a compound having 3 or more and less than 10 is denoted as B)				
15.5 nM	CCO[C@@H]1C[C@H]2C(=O)NC3(CCC3)C(=O)N(C)[C@@H](C3CCCC3)C(=O)N(C)[C@H](C(=O)N(C)CC)CC(=O)N(C)[C@@H](C3CCC3)C(=O)N[C@@H]([C@@H](C)CC)C(=O)N(C)CC(=O)N(C)[C@H]3C/C=C\CCN(C3=O)[C@@H](Cc3ccc(C(F)(F)F)cc3)C(=O)N(C)CC(=O)N[C@@H](CCc3cc(F)c(C(F)(F)F)c(F)c3)C(=O)N2C1 [PP1996]					B (a compound having 3 or more and less than 10 is denoted as B)	A (a compound having 10 or more and less than 20 is denoted as A)
1.6 nM	CCCN1C(=O)CN(C)C(=O)CNC(=O)[C@H]([C@@H](C)CC)NC(=O)[C@H](CC(C)C)N(C)C(=O)C[C@@H](C(=O)N(C)C)N(C)C(=O)[C@H](C2CCCC2)N(C)C(=O)C2(CCC2)NC(=O)[C@@H]2C[C@@H](OCC)CN2C(=O)[C@H](CCc2ccc(C(F)(F)F)c(Cl)c2)NC(=O)CN(C)C(=O)[C@@H]1Cc1ccc(C(F)(F)F)cc1 [PP0422] ([NMeL]IG[Sar][NPrPhe(4-CF3)][Sar][hPhe(3-Cl-4-CF3)][Hyp](Et)[Ac4c][NMeGly(cPent)][NMeD]-NMe2; lactam N-11)					B (a compound having 3 or more and less than 10 is denoted as B)	B (a compound having 3 or more and less than 10 is denoted as B)
